Assay results published in ChEMBL document CHEMBL1129191, “Syntheses of trans-3-substituted-CCG-IV analogs and their characterization to ionotropic glutamate receptors” (Bioorg Med Chem Lett, 1996).

Tests used:
[1] = biological target: Glutamate NMDA receptor; assay: Compound was evaluated for the inhibition of [3H]CGS-19,755 binding to NMDA receptor from rat brain synaptic membrane.
[2] = biological target: Glutamate receptor ionotropic, AMPA (Rattus norvegicus, UniProt P19490+P19491+P19492+P19493)
Description: Compound was evaluated for the inhibition of [3H]AMPA binding to Ionotropic glutamate receptor AMPA from rat brain synaptic membrane.

Structure (SMILES)	IC50 [1] [µM]	IC50 [2] [µM]
N[C@H](C(=O)O)[C@@H]1[C@@H](COCc2ccccc2)[C@@H]1C(=O)O	21	> 100
COC[C@H]1[C@H](C(=O)O)[C@@H]1[C@H](N)C(=O)O	50	4
C=C1C[C@@H]([C@H](N)C(=O)O)[C@@H](C(=O)O)C1	> 100	7.5
C=C[C@H]1[C@H](C(=O)O)[C@@H]1[C@H](N)C(=O)O	1.2	4
CC[C@H]1[C@H](C(=O)O)[C@@H]1[C@H](N)C(=O)O	2	2
CN[C@H](CC(=O)O)C(=O)O [N-METHYL-D-ASPARTIC ACID (NMDA)]	5.5	> 100
C=C(C)[C@H]1CN[C@H](C(=O)O)[C@H]1CC(=O)O [KAINIC ACID]	> 100	
N[C@H](C(=O)O)[C@@H]1C[C@@H]1C(=O)O	0.0052	
